Experimental findings from EP1958941A1, “Oxazolidinones and their use as hypocholesterolemic agents” (Lipideon Biotechnology AG, priority 2007, dated 2008) are described below.

This experiment relates to rabbit brush border membrane vesicles (BBMV). Description: inhibition of cholesterol uptake in rabbit brush border membrane vesicles (scavenger receptor-mediated uptake of radiolabelled cholesterol ester from donor particles). Conditions: inhibition of uptake of radiolabelled cholesterol ester from loaded donor particles into the BBMV bilayer; test concentration not given. The format is biochemical. Here is the method:
Chem. Int. Ed. 2004, 43, 4653-4656; Kvaerno, L. et. al. Org. Lett. 2005, 7, 1145-1148, van Bennekum, A. et. al. Biochemistry 2005, 44, 4517-4525).
The compounds of the invention (commercially obtained or prepared according to Wu, G. Z. et al., J. Org. Chem. 1999, 64, 3714-3718) together with the glucuronide (the metabolite of ezetimibe, prepared according to Vaccaro and Davis, Bioorg. Med. Chem. Lett. 1998, 8, 313-318) as appropriate reference compounds were evaluated by well-established methods to determine their inhibition of cholesterol uptake in rabbit brush border membrane vesicles (BBMV) (Table 1). Briefly, the scavenger receptor-mediated uptake of radiolabelled cholesterol ester from the loaded donor particles into the BBMV bilayer was measured in the presence of various compounds of the invention and appropriate reference compounds (Kvaerno, L. et al, Angew. Chem. Int. Ed. 2004, 43, 4653-4656; Kvaerno, L. et al, Org. Lett. 2005, 7, 1145-1148).
For `C[N+](C)(C)CCNC(=O)c1ccc(N2C(=O)O[C@H](CO)[C@H]2c2ccc(OCc3ccccc3)cc2)cc1` [Compound 34, ((4R,5S)-4-(4-(benzyloxy)phenyl)-5-(hydroxy-methyl)-2-oxooxazolidin-3-yl)-N-(2-(trimethylamonium-iodide)ethyl)benzamide], the “CAI (%) Inhibition” value worked out at 29 ± 3%. For `O=C1[C@H](CC[C@H](O)c2ccc(F)cc2)[C@@H](c2ccc(O)cc2)N1c1ccc(F)cc1` [Ezetimibe, reference compound], the “CAI (%) Inhibition” value was 15 ± 4%. In the case of `O=C(NCCN1CCOCC1)c1ccc(N2C(=O)O[C@H](CO)[C@H]2c2ccc(OCc3ccccc3)cc2)cc1` [Compound 36, 4-((4R,5S)-4-(4-(benzyloxy)phenyl)-5-(hydroxymethyl)-2-oxooxazolidin-3-yl)-N-(2-morpholinoethyl)-benzamide] it was 33 ± 2%; in that of `C[N+](C)(C)CCNC(=O)c1ccc(N2C(=O)O[C@H](CO)[C@H]2c2ccc(O)cc2)cc1` [Compound 35, ((4R,5S)-4-(4-hydroxyphenyl)-5-(hydroxymethyl)-2-oxooxazolidin-3-yl)-N-(2-(trimethylamoniumbromide)ethyl)-benzamide], 20 ± 1%; in that of `O=C(NCCN1CCOCC1)c1ccc(N2C(=O)O[C@H](CO)[C@H]2c2ccc(O)cc2)cc1` [Compound 37, 4-((4R,5S)-5-(hydroxymethyl)-4-(4-hydroxy-phenyl)-2-oxooxazolidin-3-yl)-N-(2-morpholinoethyl)-benzamide], 21 ± 3%. Regarding `O=C1O[C@H](Cn2nncc2-c2ccc(F)cc2)[C@@H](c2ccc(O)cc2)N1c1ccc(F)cc1` [Compound 30, (4R,5R)-3-(4-fluorophenyl)-5-((5-(4-fluorophenyl)-1H-1,2,3-triazol-1-yl)methyl)-4-(4-hydroxyphenyl)oxazolidin-2-one], the “CAI (%) Inhibition” value is listed as 16 ± 1%. Then `C[N+]1(CCNC(=O)c2ccc(N3C(=O)O[C@H](CO)[C@H]3c3ccc(OCc4ccccc4)cc3)cc2)CCOCC1.[I-]` [Compound 38, 4-(2-(4-((4R,5S)-4-(4-(benzyloxy)phenyl)-5-(hydroxymethyl)-2-oxooxazolidin-3-yl)benzamido)ethyl)-4-methylmorpholin-4-ium iodide], with 24 ± 2%; and `O=C1O[C@H](Cn2nncc2-c2ccccc2)[C@@H](c2ccc(O)cc2)N1c1ccc(F)cc1` [Compound 29, (4R, 5R)-3-(4-fluorophenyl)-4-(4-hydroxyphenyl)-5-((5-phenyl-1H-1,2,3-triazol-1-yl)methyl)oxazolidin-2-one], with 15 ± 1%. In the case of `CN(C)CCNC(=O)c1ccc(N2C(=O)O[C@H](CO)[C@H]2c2ccc(O)cc2)cc1` [Compound 33, N-(2-(dimethylamino)ethyl)-4-((4R,5S)-5-(hydroxymethyl)-4-(4-hydroxyphenyl)-2-oxooxazolidin-3-yl)-benzamide] it was 16 ± 2%; in that of `CCCNC(=O)c1ccc(N2C(=O)O[C@H](CO)[C@H]2c2ccc(O)cc2)cc1` [Compound 15, 4-((4R,5S)-5-(hydroxymethyl)-4-(4-hydroxyphenyl)-2-oxooxazolidin-3-yl)-N-propylbenzamide], 15 ± 4%.
